# Measurements: US7378545B2, “Crystallization of amino acids using ultrasonic agitation” (Abbott Laboratories, priority 2002, dated 2008)
# Experiments:
# Format in all cases: physicochemical
# [1] = Effect of ultrasonification intensity on crystal size (one-liter flask in ultrasonic bath, ≈40 kHz); conditions: for C.V. Coefficient of variation = (X86 − X14)/(2 * X50): unit assumed
# Protocol: A one-liter round bottom glass flask was filled with the standard L-thyroxine solution and cooled under stirring. The flask was then immersed in an ultrasonic bath (Sonorex Super Bandelin DK102, ≈40 kHz) to study the influence of different sonification intensities on the size of L-thyroxine crystals. The frequency and power dissipated by the bath was measured using a hydrophone. As an additional parameter, the onset point of sonification and its duration was also varied.
# [2] = Effect of ultrasonification intensity on crystal size (22 L crystallizer, 24 kHz sonotrode)
# Protocol: In order to verify the findings from Example 5, additional experiments were carried out in a 22 L double-jacket glass crystallizer equipped with a draft tube and a 200 mm marine type propeller (Ne=0.3). A custom-made sonotrode (24 kHz) was used along with a UIP250 sound generator. In this example, the exact sonification power was not determined, although it was estimated to be in the order of 25-50 W. The findings are illustrated in Table 7.
# [3] = Degradation of L-thyroxine in crystallization solution at elevated temperature; conditions: concentrations above 10% not feasible
# Protocol: Concentrations of L-thyroxine above 10% were not feasible due to degradation at above 65° C.
# [4] = Solubility of L-thyroxine in standard solution (cooling/redissolving, light probe)
# Protocol: The solubility of L-thyroxine was determined by studying a standard solution of L-thyroxine.
# The L-thyroxine solution was then transferred to a glass crystallizer and cooled until the L-thyroxine crystallized spontaneously. Then, the temperature of the solution was slowly raised until the crystallized L-thyroxine was redissolved. The crystallization status of the solution was determined using a light probe. The light probe was comprised of two parallel rods with a light source and a photocell. The light probe measured the amount of crystals in the solution by determining the change in the amount of light that was absorbed or scattered by the solution. In solutions with crystals, the photocells registered a weakened beam as compared to beams sent through clear solutions.
# Data obtained from these experiments is plotted in FIG. 1. The solubility of L-thyroxine in the standard solution is given by black circles, interpolated by the solid line.
# The temperature of saturation at standard conditions (4.84% w/w) was 42° C. […] A theoretical yield of 83% of L-thyroxine was calculated. […] At a concentration of 20% propanol or 4% sodium carbonate, the solubility of L-thyroxine at lower temperatures was not determined. Under these conditions, sodium carbonate co-precipitated with sodium L-thyroxine at around 10° C.
# [5] = Nucleation temperature / metastable zone during cooling of L-thyroxine solutions
# Source text: The extent of the metastable zone depends on the rate of cooling. The lower the cooling rate, the higher the temperature at which nucleation begins.
# [6] = Parametric sensitivity of L-thyroxine crystallization, particle size (one liter glass crystallizer, no ultrasound)
# Protocol: The following trials were conducted to test the effects of various parameters other than ultrasonification on the crystallization of L-thyroxine. These trials were performed in a one liter glass crystallizer equipped with three baffles and a 60 mm marine type propeller (Ne=0.4). While most trials were run with the standard solution given in Example 1, propanol concentration was varied in trials 5 and 6. The final temperature for all trials was 10° C.
# [7] = Effect of ultrasonification on crystallization, particle size by Aerosizer time-of-flight (2000 W, 20 kHz sonotrode)
# Source text: L-thyroxine crystals were obtained by batch-wise cooling crystallization of a standard solution of L-thyroxine.
# To crystallize L-thyroxine, the standard solution of L-thyroxine was heated to a specified temperature, introduced into a crystallizer and cooled at a controlled rate. As the solution cooled and L-thyroxine crystallized, the solution was exposed to ultrasonification.
# A sonotrode complete with generator and transducer capable of emitting an radial ultrasonic pressure wave at a 20 kHz frequency and 2000 W of power (UIP 2000 industrial processor with block sonotrode) was mounted in the crystallizer. The L-thyroxine solution was prepared and agitated at 20 RPM. The temperature was stabilized at 50° C., and the ultrasonic generator was turned on in continuous mode and at 100% amplitude. The cooling sequence was then initiated and the temperature of the solution was lowered at 0.5° C. per minute to a final set point of 10° C. The period of time that the ultrasound was applied to the solution as it was cooling to this set point was varied. For the first trial, a controlled crystallization was allowed to occur without any application of ultrasound to the product solution. For the second trial, the ultrasound remained on until a temperature of 30° C. was reached. At this point the ultrasound was turned off while the solution continued to cool to 10° C. When 10° C. was reached, the slurry was sampled and heated back up to 50° C. to redissolve the solid. The third trial proceeded in the same manner, but when the solution reached a temperature of 26° C., the ultrasound was turned off and the solution continued to cool to 10° C. The trials continued in this manner, changing the temperature at which the ultrasound was turned off by 4° C. each time until for the last trial, the solution was sonified throughout cooling. During this last trial, ultrasound was maintained at the cooling set point for a period of one hour, with samples being pulled at the half hour and one hour mark. This slurry was then transferred to a filter dryer for filtering, washing and drying. Once the product was dry, a sample was taken to determine the additional effects on particle size of the manufacturing process downstream of the crystallizer.
# Particle size analysis for all samples was performed with an Aerosizer aerodynamic time-of-flight particle-sizing instrument.
# Samples for all of the trials shown in the table above were taken from the crystallizer in the slurry form. A portion of these slurry samples was filtered, washed with ethanol and dried at ambient temperature. A reduction in particle size on a volume basis was apparent between trial 1, which underwent no sonification, and trials 2-7, which underwent various periods of ultrasound application. The magnitude of this reduction is roughly three fold.
# [8] = trial 3: 10% US switched on at 32.5° C. (1K above expected nucleation temperature)
# [9] = trial 5: 50% US switched on at 32.5° C.
# [10] = trial 6: 100% US (roughly 0.18 W/cm^2)
# [11] = trial 7: 100% US switched on at 32.5° C.
# [12] = trial 8: 100% US switched off immediately after nucleation
# [13] = trial 1: ultrasound off, cooled 50 to 10° C. at 0.5° C. per minute
# [14] = trial 2: ultrasound on at 50° C., off at 30° C.
# [15] = trial 3: ultrasound on at 50° C., off at 26° C.
# [16] = trial 4: ultrasound on at 50° C., off at 22° C.
# [17] = trial 5: ultrasound on at 50° C., off at 18° C.
# [18] = trial 6: ultrasound on at 50° C., off at 14° C.
# [19] = trial 7: ultrasound on at 50° C., off at 10° C.
smiles,measurement,setting,value
N[C@@H](Cc1cc(I)c(Oc2cc(I)c(O)c(I)c2)c(I)c1)C(=O)O [L-thyroxine],Average Size,[1]; trial 1: 0% US intensity,46 μm
same,Undercooling,[1]; trial 1: 0% US intensity,13.6 °C
same,C.V. Coefficient of variation = (X86 − X14)/(2 * X50),[1]; trial 1: 0% US intensity,74%
same,Average Size,[1]; trial 2: 10% US,13 μm
same,Undercooling,[1]; trial 2: 10% US,12.1 °C
same,C.V. Coefficient of variation = (X86 − X14)/(2 * X50),[1]; trial 2: 10% US,70%
same,Average Size,[1]; [8],11 μm
same,Undercooling,[1]; [8],12.8 °C
same,C.V. Coefficient of variation = (X86 − X14)/(2 * X50),[1]; trial 3: 10% US switched on at 32.5° C.,84%
same,Average Size,[1]; trial 4: 50% US,13 μm
same,Undercooling,[1]; trial 4: 50% US,10.6 °C
same,C.V. Coefficient of variation = (X86 − X14)/(2 * X50),[1]; trial 4: 50% US,65%
same,Average Size,[1]; [9],11 μm
same,Undercooling,[1]; [9],12.5 °C
same,C.V. Coefficient of variation = (X86 − X14)/(2 * X50),[1]; [9],69%
same,Average Size,[1]; [10],11 μm
same,Undercooling,[1]; [10],11.9 °C
same,C.V. Coefficient of variation = (X86 − X14)/(2 * X50),[1]; trial 6: 100% US,61%
same,Average Size,[1]; [11],11 μm
same,Undercooling,[1]; [11],12.5 °C
same,C.V. Coefficient of variation = (X86 − X14)/(2 * X50),[1]; [11],62%
same,Average Size,[1]; [12],22 μm
same,Undercooling,[1]; [12],10.9 °C
same,C.V. Coefficient of variation = (X86 − X14)/(2 * X50),[1]; [12],74%
same,reduction of particle size,[2]; smallest ultrasound intensity versus no ultrasound,50%
same,Crystal size,[2]; trial 1: No Ultrasound,28 μm
same,Crystal size,[2]; trial 2: 10% Ultrasound,15 μm
same,Crystal size,[2]; trial 3: 100% Ultrasound,14 μm
same,temperature of degradation,[3],above 65 °C
same,effect of solution composition on solubility,[4]; higher sodium carbonate or propanol concentrations,the inverse effect is observed
same,effect of solution composition on solubility,[4]; reduction of sodium carbonate or propanol content of the initial solution,reduces L-thyroxine solubility
same,temperature of saturation,"[4]; standard solution, 4.84% w/w L-thyroxine, 14.0% n-propanol, 2.85% sodium carbonate",42 °C
same,solubility,"[4]; standard solution, end of the cooling curve, 10° C.",0.78%
same,metastable zone (range of supercooling),"[5]; aqueous solutions during cooling, depends on rate of cooling",5-11 °C
same,increase in the temperature at which solids appeared,"[5]; plant scale, sonified crystallizations, cooling rate 0.5° C. per minute",9-18 °C
same,decrease in the metastable zone,"[5]; sonified solution, cooling rate 0.17-0.5° C. per minute",1-3 °C
same,Nucleation Temperature,[5]; trial 1: ultrasound off,25 °C
same,Nucleation Temperature,[5]; trial 2: ultrasound on,35 °C
same,Nucleation Temperature,[5]; trial 3: ultrasound on,38 °C
same,Nucleation Temperature,[5]; trial 4: ultrasound on,38 °C
same,Nucleation Temperature,[5]; trial 5: ultrasound on,34 °C
same,Nucleation Temperature,[5]; trial 6: ultrasound on,36 °C
same,Nucleation Temperature,[5]; trial 7: ultrasound on,34 °C
same,Particle size,"[6]; trial 1: cooling 20/10 K/h, 0.5 W/kg, dried 10 mbar 50° C.",15 μm
same,Particle size,"[6]; trial 1: cooling 20/10 K/h, 0.5 W/kg, dried 1013 mbar 25° C. openly in lab",30 μm
same,Particle size,"[6]; trial 2: cooling 20/10 K/h, 5 W/kg (stirrer rate increased 3x), dried 10 mbar 35° C.",18 μm
same,Particle size,"[6]; trial 3: cooling 30 K/h, 0.5 W/kg, dried 10 mbar 35° C.",19 μm
same,Particle size,"[6]; trial 4: cooling 30 K/h, 5 W/kg, dried 1013 mbar RT",10 μm
same,Particle size,"[6]; trial 5: 20% propanol, cooling 30 K/h, 5 W/kg, dried 50 mbar 35° C.",<20 μm
same,Particle size,"[6]; trial 6: 10% propanol, cooling 30 K/h, 5 W/kg, dried 50 mbar 35° C.",>30 μm
same,Particle size,"[6]; trial 7: cooling 30 K/h, 0.5 W/kg, dried 1013 mbar RT, rinsed with 90/10 EtOH/water",16 μm
same,Particle size,"[6]; trial 8: cooling 30 K/h, 5 W/kg, dried 50 mbar 35° C., rinsed with 90/10 EtOH/water",11 μm
same,Particle size,"[6]; trial 9: cooling 30 K/h, 2 W/kg, dried 50 mbar 35° C., rinsed with 90/10 EtOH/water",13 μm
same,Particle size,"[6]; trial 10: as above, 1 hour stirring at final temperature",15 μm
same,Particle size,"[6]; trial 10: as above, 2 hour stirring at final temperature",15 μm
same,Particle size,"[6]; trial 10: cooling 30 K/h, 0.5 W/kg, dried 50 mbar 35° C.",15 μm
same,Mean Particle Size (Number),[7]; [13],3 µm
same,Mean Particle Size Volume,[7]; [13],20.8 µm
same,Mean Particle Size (Number),[7]; [14],2.4 µm
same,Mean Particle Size Volume,[7]; [14],6.6 µm
same,Mean Particle Size (Number),[7]; [15],2.3 µm
same,Mean Particle Size Volume,[7]; [15],5.4 µm
same,Mean Particle Size (Number),[7]; [16],2.5 µm
same,Mean Particle Size Volume,[7]; [16],5.7 µm
same,Mean Particle Size (Number),[7]; [17],2.4 µm
same,Mean Particle Size Volume,[7]; [17],5.3 µm
same,Mean Particle Size (Number),[7]; [18],2.4 µm
same,Mean Particle Size Volume,[7]; [18],5.2 µm
same,Mean Particle Size (Number),[7]; [19],3.1 µm
same,Mean Particle Size Volume,[7]; [19],6.1 µm
same,reduction in particle size on a volume basis,[7]; trials 2-7 (ultrasound) versus trial 1 (no sonification),roughly three fold
N[C@@H](Cc1cc(I)c(Oc2cc(I)c(O)c(I)c2)c(I)c1)C(=O)O.[Na] [sodium L-thyroxine],point of nucleation of the aqueous solution,[5]; in the absence of ultrasound,approximately 32 °C
